Measurements: BindingDB's records for PubMed 2905002 (Schering-Plough, 1988)

Target: 5-hydroxytryptamine receptor 2A (Rattus norvegicus, UniProt P14842)
Sequence (P14842 whole entry): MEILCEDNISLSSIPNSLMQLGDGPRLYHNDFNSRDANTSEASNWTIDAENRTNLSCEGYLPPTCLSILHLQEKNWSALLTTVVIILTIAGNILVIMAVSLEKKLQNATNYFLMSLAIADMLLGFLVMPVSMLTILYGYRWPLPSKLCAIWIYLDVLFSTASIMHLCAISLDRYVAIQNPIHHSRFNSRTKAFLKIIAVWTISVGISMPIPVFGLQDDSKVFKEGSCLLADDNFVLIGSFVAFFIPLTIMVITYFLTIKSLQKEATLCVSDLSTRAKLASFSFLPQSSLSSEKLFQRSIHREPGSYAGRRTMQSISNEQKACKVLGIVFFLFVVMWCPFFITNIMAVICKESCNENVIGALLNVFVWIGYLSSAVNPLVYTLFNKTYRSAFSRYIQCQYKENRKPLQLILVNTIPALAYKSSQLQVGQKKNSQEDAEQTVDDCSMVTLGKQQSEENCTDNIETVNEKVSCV

Row | SMILES | Ki [nM]
1 | CN1CCc2cc(Cl)c(O)cc2[C@H]2c3ccccc3CC[C@@H]21 | 321
2 | CN1CCc2cc(Cl)c(O)cc2[C@@H](c2ccccc2)C1 [SCH 23390,R(+)] | 13.1
